Laboratory results published in US20250353833A1, “DPP9 BINDING COMPOUNDS” (UNIVERSITEIT ANTWERPEN, priority 2022, published 2025).
Like-named read-outs stand apart in the source and are kept apart here.

Legend:
DPP8 = DPP8 (Homo sapiens (Human), UniProt Q6V1X1); assay: DPP8 enzyme inhibition, IC50 measurement (Ala-Pro-pNA release); type: biochemical
Protocol: (§1) IC50 measurements. […] The Magellan software was used to process the data, which was then fitted using a non-linear fit model in GraFit 7. […] As a blank, the assay buffer was used instead of the enzyme. Screening measurements were carried out in duplo and IC50 values were determined in triplo with at least eight different inhibitor concentrations as described by Van Goethem et al.

DPP9 = DPP9 (Homo sapiens (Human), UniProt Q86TI2); assay: DPP9 enzyme inhibition, IC50 measurement (Ala-Pro-pNA release); type: biochemical; settings: for SI DPP9/DPP8 / SI DPP9/8: selectivity index; for SI DPP9/8: DPP8 IC50 over DPP9 IC50
Sequence of DPP9 (Q86TI2 whole entry): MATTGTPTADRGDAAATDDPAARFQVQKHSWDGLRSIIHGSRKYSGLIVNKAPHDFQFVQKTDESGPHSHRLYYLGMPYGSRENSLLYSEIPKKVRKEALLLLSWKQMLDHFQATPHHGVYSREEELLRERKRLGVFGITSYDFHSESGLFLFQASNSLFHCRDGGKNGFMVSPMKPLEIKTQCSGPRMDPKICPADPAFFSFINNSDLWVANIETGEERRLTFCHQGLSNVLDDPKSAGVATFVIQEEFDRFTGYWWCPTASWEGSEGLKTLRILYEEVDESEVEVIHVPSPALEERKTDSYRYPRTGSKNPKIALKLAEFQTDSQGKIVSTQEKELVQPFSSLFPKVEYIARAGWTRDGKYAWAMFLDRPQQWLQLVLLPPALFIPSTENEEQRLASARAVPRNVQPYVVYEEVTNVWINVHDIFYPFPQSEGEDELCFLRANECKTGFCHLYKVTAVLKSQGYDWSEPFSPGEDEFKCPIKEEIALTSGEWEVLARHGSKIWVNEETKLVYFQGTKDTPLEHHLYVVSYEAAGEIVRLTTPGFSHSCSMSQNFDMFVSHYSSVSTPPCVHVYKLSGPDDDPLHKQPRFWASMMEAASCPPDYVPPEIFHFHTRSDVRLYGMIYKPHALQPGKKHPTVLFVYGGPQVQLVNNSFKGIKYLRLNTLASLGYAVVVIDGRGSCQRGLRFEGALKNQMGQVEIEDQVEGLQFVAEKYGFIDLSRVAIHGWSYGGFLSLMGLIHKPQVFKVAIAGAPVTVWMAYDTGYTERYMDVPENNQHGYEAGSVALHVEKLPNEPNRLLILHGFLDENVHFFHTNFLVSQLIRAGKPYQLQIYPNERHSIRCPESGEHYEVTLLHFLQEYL
Protocol: DPP4 was purified from human seminal plasma as described previously.^[3]
as §1

[1] = Table 4, standard method, read-out: IC50 DPP8
[2] = Table 4, standard method, read-out: IC50 DPP9
[3] = Table 3, mean ± SD (n = 3), read-out: DPP8 IC50 ± SD
[4] = Table 3, mean ± SD (n = 3), read-out: DPP9 IC50 ± SD

Sequence of DPP8 (Q6V1X1 whole entry): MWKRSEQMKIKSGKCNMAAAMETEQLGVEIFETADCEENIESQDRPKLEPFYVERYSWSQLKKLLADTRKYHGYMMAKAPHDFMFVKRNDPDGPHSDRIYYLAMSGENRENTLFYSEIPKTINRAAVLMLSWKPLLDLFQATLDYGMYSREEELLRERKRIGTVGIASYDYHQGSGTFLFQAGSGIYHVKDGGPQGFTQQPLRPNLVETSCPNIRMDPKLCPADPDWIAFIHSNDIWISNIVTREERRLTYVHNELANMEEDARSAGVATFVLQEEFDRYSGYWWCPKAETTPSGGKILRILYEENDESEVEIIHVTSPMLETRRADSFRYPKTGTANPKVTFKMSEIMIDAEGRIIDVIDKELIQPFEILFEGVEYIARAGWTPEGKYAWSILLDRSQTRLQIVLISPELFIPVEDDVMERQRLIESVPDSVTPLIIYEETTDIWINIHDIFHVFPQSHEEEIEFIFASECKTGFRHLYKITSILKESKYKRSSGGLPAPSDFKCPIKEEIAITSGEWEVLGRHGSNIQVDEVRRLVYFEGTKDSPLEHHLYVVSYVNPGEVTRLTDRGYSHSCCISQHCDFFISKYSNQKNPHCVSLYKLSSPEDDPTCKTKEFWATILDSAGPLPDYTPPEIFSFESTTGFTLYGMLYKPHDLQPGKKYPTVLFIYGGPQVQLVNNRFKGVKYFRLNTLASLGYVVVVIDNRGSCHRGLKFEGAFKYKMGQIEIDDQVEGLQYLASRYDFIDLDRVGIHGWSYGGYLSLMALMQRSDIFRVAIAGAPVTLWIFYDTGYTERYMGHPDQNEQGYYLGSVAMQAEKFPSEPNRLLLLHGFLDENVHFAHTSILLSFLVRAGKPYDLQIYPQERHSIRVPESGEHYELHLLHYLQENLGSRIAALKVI

| IC50 (DPP8; [1]) [nM] | SI DPP9/DPP8 (DPP9; Table 4) | IC50 (DPP9; [2]) [nM] | IC50 (DPP8; [3]) [nM] | IC50 (DPP9; [4]) [nM] | SI DPP9/8 (DPP9; Table 3) | Compound |
| --- | --- | --- | --- | --- | --- | --- |
| 295 ± 15 | 7 | 42 | – | – | – | Cl.O=C(NC12CC3CC(CC(NCC(=O)N4Cc5ccc(F)cc5C4)(C3)C1)C2)c1ccc(F)cc1 [Compound 95, 4-fluoro-N-((1s,3r,5R,7S)-3-((2-(5-fluoroisoindolin-2-yl)-2-oxoethyl)amino)adamantan-1-yl)benzamide hydrochloride] |
| – | – | – | 1140 ± 150 | 36.7 | 31.7 | CC(C)(C)OC(=O)NC12CC3CC(CC(NCC(=O)N4Cc5ccccc5C4)(C3)C1)C2 [Compound 28, tert-butyl(3-((2-(isoindolin-2-yl)-2oxoethyl)amino)adamantan-1-yl)carbamate] |
| 51 ± 25 | 24 | 2 | – | – | – | Cl.O=C(NC12CC3CC(CC(NCC(=O)N4Cc5ccc(F)cc5C4)(C3)C1)C2)c1ccc(-c2cccnc2)cc1 [Compound 88, N-((1s,3r,5R,7S)-3-((2-(5-fluoroisoindolin-2-yl)-2-oxoethyl)amino)adamantan-1-yl)-4-(pyridin-3-yl)benzamide hydrochloride] |
| – | – | – | 39.4 | 1.74 | 22.5 | O=C(NCCCC[C@H](NC(=O)OC12CC3CC(CC(NCC(=O)N4Cc5ccccc5C4)(C3)C1)C2)C(=O)O)OCc1ccccc1 [Compound 34, N^6-((benzyloxy)carbonyl)-N^2-(((3-((2-(isoindolin-2-yl)-2-oxoethyl)amino)adamantan-1-yl)oxy)carbonyl)-L-lysine] |
| 127 ± 23 | 37 | 3 | – | – | – | Cl.O=C(NC12CC3CC(CC(NCC(=O)N4Cc5ccc(F)cc5C4)(C3)C1)C2)c1ccc(-c2ccccn2)cc1 [Compound 90, N-((1s,3r,5R,7S)-3-((2-(5-fluoroisoindolin-2-yl)-2-oxoethyl)amino)adamantan-1-yl)-4-(pyridin-2-yl)benzamide hydrochloride] |
| – | – | – | 175 ± 33.1 | 14.3 | 12.2 | O=C(NC(c1ccccc1)c1ccccc1)OC12CC3CC(CC(NCC(=O)N4Cc5ccccc5C4)(C3)C1)C2 [Compound 33, 3-((2-(isoindolin-2-yl)-2-oxoethyl)amino)adamantan-1-yl benzhydrylcarbamate] |
| – | – | – | 1110 ± 335 | 90.8 ± 13.5 | 12.2 | O=C(NCc1ccncc1)OC12CC3CC(CC(NCC(=O)N4Cc5ccccc5C4)(C3)C1)C2 [Compound 37, 3-((2-(isoindolin-2-yl)-2-oxoethyl)amino)adamantan-1-yl (pyridin-4-ylmethyl)carbamate] |
| – | – | – | 1540 ± 101 | 93.2 ± 39 | 16.5 | O=C(CNC12CC3CC(C1)CC(NCc1ccc(-c4ccccc4)cc1)(C3)C2)N1Cc2ccccc2C1 [Compound 27, 2-((3-(([1,1′-biphenyl]-4-ylmethyl)amino)adamantan-1-yl)amino)-1-(isoindolin-2-yl)ethan-1-one] |
| – | – | – | 689 ± 32.3 | 43.8 | 15.7 | COC(=O)[C@H](Cc1c[nH]c2ccccc12)NC(=O)OC12CC3CC(CC(NCC(=O)N4Cc5ccc(F)cc5C4)(C3)C1)C2 [Compound 60, Methyl (((3-((2-(5-fluoroisoindolin-2-yl)-2-oxoethyl)amino)adamantan-1-yl)oxy)carbonyl)-L-tryptophanate] |
| – | – | – | 369 ± 30 | 4 ± 1 | 85 | CC(C)(C)NC(=O)NC12CC3CC(CC(NCC(=O)N4Cc5ccc(F)cc5C4)(C3)C1)C2 [Compound 48, 1-(tert-butyl)-3-(3-((2-(5-fluoroisoindolin-2-yl)-2-oxoethyl)amino)adamantan-1-yl)urea] |
| 4710 ± 444 | 23 | 208 ± 48 | – | – | – | Cc1ccc2c(c1)CN(C(=O)CNC13CC4CC(C1)CC(NC(=O)OC(C)(C)C)(C4)C3)C2 [Compound 84, tert-butyl ((1s,3r,5R,7S)-3-((2-(5-methylisoindolin-2-yl)-2-oxoethyl)amino)adamantan-1-yl)carbamate] |
| – | – | – | 5220 ± 321 | 309 ± 60.4 | 16.9 | COc1ccc2c(c1)CN(C(=O)CNC13CC4CC(C1)CC(NC(=O)OC(C)(C)C)(C4)C3)C2 [Compound 59, tert-butyl (3-((2-(5-methoxyisoindolin-2-yl)-2-oxoethyl)amino)adamantan-1-yl)carbamate] |
| – | – | – | 638 ± 46.4 | 32 | 19.9 | N#Cc1ccc(CCC(=O)NC23CC4CC(CC(NCC(=O)N5Cc6ccccc6C5)(C4)C2)C3)cc1 [Compound 44, 3-(4-cyanophenyl)-N-(3-((2-(isoindolin-2-yl)-2-oxoethyl)amino)adamantan-1-yl)propanamide] |
| – | – | – | 1150 ± 151 | 73.8 | 15.6 | O=C(NCc1ccccc1)OC12CC3CC(CC(NCC(=O)N4Cc5ccccc5C4)(C3)C1)C2 [Compound 36, 3-((2-(isoindolin-2-yl)-2-oxoethyl)amino)adamantan-1-yl benzylcarbamate] |
| – | – | – | 8 | 1.4 | 6 | O=C1CCC(N2C(=O)c3cccc(NCCOCCOC(=O)NC45CC6CC(CC(NCC(=O)N7Cc8ccc(F)cc8C7)(C6)C4)C5)c3C2=O)C(=O)N1 (stereo not drawn) [Compound 76, 2-(2-((2-(2,6-Dioxopiperidin-3-yl)-1,3-dioxoisoindolin-4-yl)amino)ethoxy)ethyl (3-((2-(5-fluoroisoindolin-2-yl)-2-oxoethyl)amino)adamantan-1-yl)carbamate] |
| – | – | – | 667 ± 31.1 | 47.7 | 14.0 | O=C(NC(c1ccc(F)cc1)c1ccc(F)cc1)OC12CC3CC(CC(NCC(=O)N4Cc5ccccc5C4)(C3)C1)C2 [Compound 32, 3-((2-(isoindolin-2-yl)-2-oxoethyl)amino)adamantan-1-yl (bis(4-fluorophenyl)methyl)carbamate] |
| – | – | – | 79 | 12 | 7 | O=C1CCC(N2C(=O)c3cccc(NCCOCCOCCOCCNC(=O)NC45CC6CC(CC(NCC(=O)N7Cc8ccc(F)cc8C7)(C6)C4)C5)c3C2=O)C(=O)N1 (stereo not drawn) [Compound 78, 1-(2-(2-(2-(2-((2-(2,6-Dioxopiperidin-3-yl)-1,3-dioxoisoindolin-4-yl)amino)ethoxy)ethoxy)ethoxy)ethyl)-3-(3-((2-(5-fluoroisoindolin-2-yl)-2-oxoethyl)amino)adamantan-1-yl)urea] |
| 1330 ± 97 | 41 | 32 | – | – | – | CC(C)(C)NC(=O)NC12CC3CC(CC(NCC(=O)N4Cc5cc(F)c(F)cc5C4)(C3)C1)C2.Cl [Compound 85, 1-(tert-butyl)-3-((1s,3r,5R,7S)-3-((2-(5,6-difluoroisoindolin-2-yl)-2-oxoethyl)amino)adamantan-1-yl)urea hydrochloride] |
| – | – | – | 1050 ± 133 | 51.8 ± 15.7 | 20.3 | CC(C)(C)NC(=O)NC12CC3CC(CC(NCC(=O)N4Cc5ccccc5C4)(C3)C1)C2.Cl [Compound 40, 1-(tert-butyl)-3-(3-((2-(isoindolin-2-yl)-2-oxoethyl)amino)adamantan-1-yl)urea hydrochloride] |
| – | – | – | 2620 ± 394 | 259 ± 35.8 | 10.1 | NC12CC3CC(C1)CC(NCC(=O)N1Cc4ccc(F)cc4C1)(C3)C2 [Compound 47, 2-((3-aminoadamantan-1-yl)amino)-1-(5-fluoroisoindolin-2-yl)ethan-1-one bis(2,2,2-trifluoroacetate)] |
| – | – | – | 1010 ± 132 | 100 | 10.1 | O=C(NCCCc1ccccc1)OC12CC3CC(CC(NCC(=O)N4Cc5ccccc5C4)(C3)C1)C2 [Compound 38, 3-((2-(isoindolin-2-yl)-2-oxoethyl)amino)adamantan-1-yl (3-phenylpropyl)carbamate] |
| 102 ± 28 | 12 | 8 | – | – | – | Cl.O=C(NC12CC3CC(CC(NCC(=O)N4Cc5ccc(F)cc5C4)(C3)C1)C2)c1ccc(-c2ccncc2)cc1 [Compound 91, N-((1s,3r,5R,7S)-3-((2-(5-fluoroisoindolin-2-yl)-2-oxoethyl)amino)adamantan-1-yl)-4-(pyridin-4-yl)benzamide hydrochloride] |
| – | – | – | 399 ± 38.8 | 36.6 | 10.9 | O=C(N[C@H]1CC[C@H](O)CC1)OC12CC3CC(CC(NCC(=O)N4Cc5ccccc5C4)(C3)C1)C2 [Compound 35, 3-((2-(isoindolin-2-yl)-2-oxoethyl)amino)adamantan-1-yl ((1r,4R)-4-hydroxycyclohexyl)carbamate] |

| Compound | IC50 (DPP8; [1]) [nM] | SI DPP9/DPP8 (DPP9; Table 4) | IC50 (DPP9; [2]) [nM] | IC50 (DPP8; [3]) [nM] | IC50 (DPP9; [4]) [nM] | SI DPP9/8 (DPP9; Table 3) |
| --- | --- | --- | --- | --- | --- | --- |
| N-(3-((2-(isoindolin-2-yl)-2-oxoethyl)amino)adamantan-1-yl)adamantane-1-carboxamide [Compound 43] | – | – | – | 5700 ± 1100 | 186 ± 53.6 | 30.6 |
| O=C(O)CNC(=O)OC12CC3CC(CC(NCC(=O)N4Cc5ccc(F)cc5C4)(C3)C1)C2 [Compound 53] | – | – | – | 1740 ± 59.1 | 39.6 | 43.9 |
| Methyl (((3-((2-(5-fluoroisoindolin-2-yl)-2-oxoethyl)amino)adamantan-1-yl)oxy)carbonyl)-L-isoleucinate [Compound 57] | – | – | – | 2180 ± 345 | 107 | 20.4 |
| lithium (((3-((2-(5-fluoroisoindolin-2-yl)-2-oxoethyl)amino)adamantan-1-yl)oxy)carbonyl)-L-tryptophanate [Compound 56] | – | – | – | 2080 ± 184 | 94.6 | 22.0 |
